In article PMC3311999 (2011) one finds Km data, which are given here for two substances.

The assay concerns the target PI3K (PIK3CA/PIK3R1) (Homo sapiens, UniProt P42336). As to the kind of experiment: Michaelis-Menten kinetics. It counts as biochemical.

PI3K (PIK3CA/PIK3R1), sequence (P42336 whole entry): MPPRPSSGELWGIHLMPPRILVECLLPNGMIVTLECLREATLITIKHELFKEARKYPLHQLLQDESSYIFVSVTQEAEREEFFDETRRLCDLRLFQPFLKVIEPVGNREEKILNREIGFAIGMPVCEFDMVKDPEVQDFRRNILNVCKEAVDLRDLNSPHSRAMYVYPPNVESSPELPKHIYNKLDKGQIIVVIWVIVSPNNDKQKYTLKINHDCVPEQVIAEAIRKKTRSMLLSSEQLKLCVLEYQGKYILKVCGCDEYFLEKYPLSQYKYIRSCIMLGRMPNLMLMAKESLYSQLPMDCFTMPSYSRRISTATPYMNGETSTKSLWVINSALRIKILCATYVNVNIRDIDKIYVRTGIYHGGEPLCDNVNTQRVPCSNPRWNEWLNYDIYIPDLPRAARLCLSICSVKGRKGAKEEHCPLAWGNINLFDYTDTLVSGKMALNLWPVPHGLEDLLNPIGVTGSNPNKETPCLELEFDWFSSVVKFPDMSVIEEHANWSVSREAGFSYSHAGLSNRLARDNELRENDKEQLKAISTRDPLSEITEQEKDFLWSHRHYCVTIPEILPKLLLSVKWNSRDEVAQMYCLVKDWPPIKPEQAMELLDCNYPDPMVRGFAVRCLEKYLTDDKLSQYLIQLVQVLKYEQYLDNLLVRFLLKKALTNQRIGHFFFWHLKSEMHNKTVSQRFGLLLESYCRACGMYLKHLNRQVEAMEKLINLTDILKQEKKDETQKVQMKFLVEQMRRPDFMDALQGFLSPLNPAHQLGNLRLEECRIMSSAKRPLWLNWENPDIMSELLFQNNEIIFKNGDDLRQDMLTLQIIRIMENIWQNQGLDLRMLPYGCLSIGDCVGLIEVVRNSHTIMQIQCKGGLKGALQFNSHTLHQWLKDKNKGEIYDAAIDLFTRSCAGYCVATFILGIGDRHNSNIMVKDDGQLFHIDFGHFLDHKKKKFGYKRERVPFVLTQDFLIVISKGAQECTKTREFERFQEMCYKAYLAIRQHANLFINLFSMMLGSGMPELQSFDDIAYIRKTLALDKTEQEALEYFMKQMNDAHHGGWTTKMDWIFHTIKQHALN
PI3K (PIK3CA/PIK3R1), sequence (P27986 2-724 partner): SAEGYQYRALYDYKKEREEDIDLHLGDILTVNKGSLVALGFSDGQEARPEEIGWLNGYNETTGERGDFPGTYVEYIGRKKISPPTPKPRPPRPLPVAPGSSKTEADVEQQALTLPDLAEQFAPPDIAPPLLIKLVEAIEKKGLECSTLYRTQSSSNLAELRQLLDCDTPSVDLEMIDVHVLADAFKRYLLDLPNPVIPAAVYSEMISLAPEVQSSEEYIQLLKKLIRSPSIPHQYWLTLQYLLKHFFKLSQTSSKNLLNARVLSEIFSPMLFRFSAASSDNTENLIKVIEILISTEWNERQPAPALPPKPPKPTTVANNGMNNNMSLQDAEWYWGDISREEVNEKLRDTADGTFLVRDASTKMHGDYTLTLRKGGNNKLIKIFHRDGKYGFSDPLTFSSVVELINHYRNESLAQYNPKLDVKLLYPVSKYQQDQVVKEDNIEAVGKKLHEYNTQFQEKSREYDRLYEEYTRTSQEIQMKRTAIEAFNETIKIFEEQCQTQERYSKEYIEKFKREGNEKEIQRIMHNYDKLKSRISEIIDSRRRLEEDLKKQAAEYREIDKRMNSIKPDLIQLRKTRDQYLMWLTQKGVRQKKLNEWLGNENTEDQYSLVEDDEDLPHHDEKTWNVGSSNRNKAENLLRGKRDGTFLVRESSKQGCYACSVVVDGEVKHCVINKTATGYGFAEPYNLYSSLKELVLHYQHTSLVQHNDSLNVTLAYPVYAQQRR

FL-PIP2: the Km amounted to 44.8 ± 9.8 µM.

As for BODIPY-PIP2, the Km worked out at 68.7 ± 5.2 µM.

As a reminder, the Km is the concentration of substrate that gives half-maximal velocity.
